Results reported in patent US20130253179A1, “Functionalization Processes and Reactants Used in Such Processes Using an Isatoic Anhydride or a Derivative Thereof, Biological Molecules Thus Treated and Kits” (priority 2010, published 2013).
Values after ≈ are worked out from the molar mass of the structure shown.

How the values were obtained:
[1] = tested on: model oligoribonucleotide (ORN) with 27 bases; assay: Functionalisation of a model ORN with 27 bases: functionalisation rate and regiospecificity by HPLC/LC-MS after nuclease P1/alkaline phosphatase hydrolysis; type: biochemical; details: compound 30 mM, 1 h at 65° C., 250 mM TEAAc pH 7, 25% DMSO; for Fr (corrected functionalisation rate): ORN 8 nmol
Text: For this purpose, a fixed quantity of ORN is reacted with an isatoic anhydride derivative conjugated to a molecule of interest (Cy3 IA Me (13)), under various temperature conditions, duration conditions, reaction medium conditions, etc. HPLC monitoring of the reaction at 260 nm makes it possible to detect the disappearance of the peak corresponding to the initial ORN and the appearance of peaks corresponding to acylated ORN. These products have a greater retention time and have an absorption spectrum corresponding to both that of ORN and that of the fluorescent label.
However, for greater precision on the functionalisation site and to precisely evaluate the functionalisation rate (Fr), the ORN population (labelled and unlabelled) is separated from the excess label by precipitation with acetone/lithium perchlorate or by gel permeation (NAP 5™, GE Health Care. Then the ORNs thus obtained are submitted to hydrolysis with the nuclease P1 (Aldrich, Saint Louis, USA) and with the alkaline phosphatase (Aldrich, Saint Louis, USA), in order to hydrolyse the phosphate diester bonds of ORN.
The ORN functionalisation rate (Fr) is evaluated by measuring: • the area corresponding to the terminal mononucleoside adducts (functionalised at 2′ and at 3′) and the area corresponding to the acylated dinucleosides (functionalised internally on 2′OH) • compared to the area of the peaks corresponding to the four ribonucleosides.
The internal/external regiospecificity of the acylation is evaluated by measuring the relative proportion of the areas corresponding to the: • end mono-nucleotides acylated at 2′ and at 3′ • and di-nucleotides acylated internally on 2′OH • which are easily detectable by HPLC.
The mixture is incubated for 60 minutes at 65° C. in an oven on a rack which is temperature-balanced in advance. An HPLC injection (conditions 3) makes it possible to monitor a formation of a certain quantity of acylated ORN as described in FIG. 6. To eliminate the salts and the excess label, the mixture is then purified on Sephadex NAP 5 gel (GE Health Care, Uppsala, Sweden)) and/or triple precipitation in 1.2 mL of a 180 mM Acetone/LiClO4 75/25 mixture. To finish, the pellet is dried with acetone and is evaporated with the centrifugal evaporator (RCT 60, Jouan, St Herblain, France). The residue is then taken up in 33 μL of a H2O/DMSO 85/15 solution and an HPLC injection (conditions 3) is performed in order to verify the proper elimination of the label. There is added to the mixture 2 μL of nuclease P1 (ref.: N8630 Sigma-Aldrich, St Louis, USA) in 1 U/μl solution in its buffer: 20 mM sodium acetate pH 5.5; 1 mM ZnCl2; 50 mM NaCl and 1 μL of 7 u/μl alkaline phosphatase in water (Ref. P7923-2KU Sigma-Aldrich, St Louis, USA). The medium is left at ambient temperature for 4 to 6 hours. It is then injected into HPLC (conditions 3) in order to verify the total hydrolysis of the ORN and in order to analyse the nature of the fragments obtained in accordance with what was described above and as described in FIG. 6.
The functionalisation rate is evaluated with UV at 260 nm by integration of the clusters corresponding to the acylated dinucleotides and to the acylated nucleosides) relative to the clusters corresponding to the four ribonucleosides. The ratio of the population of acylated dinucleotides to the population of acylated nucleosides is evaluated in the same way in order to evaluate the percentage of functionalisation on the 3′ terminal end.
The functionalisation rate values, presented within the framework of this invention, take into account the correction factor which must be applied according to the molar extinction coefficient at 260 nm of each of the nucleosides and according to whether they are nucleosides or dinucleotides. […]

ODN with 53 bases = assay: RNA vs DNA chemoselectivity: functionalisation of an ODN with 53 bases; type: biochemical; details: compound 30 mM, DMSO/TEAAc buffer 25/75 (250 mM pH 7), 1 h at 65° C.
Method: After precipitation with acetone and hydrolysis with nuclease P1 and alkaline phosphatase, the hydrolysed fragments are analysed by LC-MS, as described in example 3. An example of the chromatograms monitoring the reaction of ODN or ORN with compound 13 is shown in FIG. 9, in which graphs A, B and C respectively represent ORN, ORN functionalised with compound 13 and precipitated, and ORN functionalised with 13, precipitated and hydrolysed. Graphs D, E and F represent the same thing, but with ODN.

in vitro RNA transcripts = assay: Detection on Affymetrix DNA chip of biotinylated in vitro RNA transcripts; parameters: species or system human; details: 30 mM compound, 60 mins at 65° C.; background in the order of 30 RFU
Method: The in vitro transcripts are generated by in vitro transcription of the total RNA extracted from blood samples with the aid of the MessageAmp II kit (Reference AM 1751, AMBION, Austin, Tex.). Briefly, after extraction of the total RNA from the blood cells, a first reverse transcription step by the enzyme […] is performed in order to generate the DNA strand complementary to the mRNA (cDNA). The RNA strand is then digested by the RNase H before forming the double strand of cDNA by means of a DNA polymerase. Finally, the antisense RNA (in vitro transcripts) is obtained from the cDNA using the transcriptase T7.
17.6 μL of previously obtained solution of in vitro RNA transcripts (568 ng/μl), 9.4 μL of ultrapure water and 3 μL of 100 mM Zn(OAc)2 pH 6.5 is mixed. This solution is then incubated for 15 mins at 70° C., and then placed immediately into ice.
30 μL of this solution is sampled, to which there is added 30 μL of a potassium phosphate solution (pH 7, 1M), 30 μL of ultrapure water and 30 μl of the compound SBiot IA Me (9) in a 120 mM solution in DMSO. […]
The excess reagent is then removed in the same way as in example 7 by precipitation with isopropanol. As well as depositing on an Affymetrix chip GeneChip Human Genome U133 Plus 2.0 Array, ref 900470, Affymetrix, St Clara, USA), the detection and measurement of the fluorescence.

physchem = details: water

| Compound | Fr (corrected functionalisation rate) [1] | solubility (Solubility in water) | External/internal regiospecificity (uncorrected ratio of areas acylated mononucleosides / acylated dinucleotides) [1] | corrected functionalisation rate of the ODN (ODN with 53 bases) | fluorescence intensities compared with background noise of unfunctionalised target IVTs (in vitro RNA transcripts) | solubility (physchem) |
| --- | --- | --- | --- | --- | --- | --- |
| O=C(CCCCC1SCC2NC(=O)NC21)Nc1ccc2[nH]c(=O)oc(=O)c2c1 (stereo not shown) [5Biot IA 5, 5-biotin-isatoic anhydride] | 1.2% | 1 mM (≈ 0.404 mg/mL) | – | – | – | – |
| Cn1c(=O)oc(=O)c2cc(NC(=O)CCCCC3SCC4NC(=O)NC43)ccc21 (stereo not shown) [5Biot IA Me 9, 1-Methyl-5 biotin-isatoic anhydride] | 2.6% | – | 55/45 | 0.1% | very substantially greater than the background noise | – |
| O=C(CCCCC1SCC2NC(=O)NC21)Nc1ccc2c(c1)c(=O)oc(=O)n2CCCS(=O)(=O)O (stereo not shown) [5Biot IA SO3^− 10, 1-propylsulfone-5-biotin-isatoic anhydride] | 1.6% | – | 60/40 | – | – | – |
| O=C(CCCCC1SCC2NC(=O)NC21)NCCOCCOCCOCCOCCC(=O)Nc1ccc2[nH]c(=O)oc(=O)c2c1 (stereo not shown) [5Biot PEG4 IA 6, 5-biotin-hexyl ethylene glycol-isatoic anhydride] | 3.3% | 19 mM (≈ 12.4 mg/mL) | 62/38 | – | – | – |
| Cn1c(=O)oc(=O)c2cc(NC(=O)CCOCCOCCOCCOCCNC(=O)CCCCC3SCC4NC(=O)NC43)ccc21 (stereo not shown) [5Biot PEG4 IA Me 11, 1-methyl-5-biotin-hexyl ethylene glycol-isatoic anhydride] | 4% | 50 mM (≈ 33.3 mg/mL) | 60/40 | – | – | – |
| O=C(CCCCC1SCC2NC(=O)NC21)NCCOCCOCCOCCOCCC(=O)NCCSSCCC(=O)Nc1ccc2[nH]c(=O)oc(=O)c2c1 (stereo not shown) [5Biot PEG4 SS IA 23] | 3.1% | – | 52/48 | – | – | – |
| CCN1/C(=C\C=C\C2=[N+](CCCCCC(=O)Nc3ccc4[nH]c(=O)oc(=O)c4c3)c3ccc(S(=O)(=O)[O-])cc3C2(C)C)C(C)(C)c2cc(S(=O)(=O)O)ccc21 [Cy3 IA 7, 5-Cy3 isatoic anhydride] | 2.6% | – | 61/39 | – | – | > 100 mM |
| CC(=O)Nc1ccc2c(c1)c(=O)oc(=O)n2CC(=O)NCCOCCOCCNC(=O)CCCCC1SCC2NC(=O)NC21 (stereo not shown) [N(Biot PEG2) acetamido IA 19, 1-biotin-diethyleneglycol-5-acetamido-isatoic anhydride] | 1.2% | – | 50/50 | – | – | – |
| O=C(CCCCC1SCC2NC(=O)NC21)NCCOCCOCCNC(=O)Cn1c(=O)oc(=O)c2ccccc21 (stereo not shown) [N(Biot PEG2)IA 18, 1-biotin-ethylene glycol-isatoic anhydride] | 3.4% | – | 56/44 | – | – | – |
| O=C(CCCCCn1c(=O)oc(=O)c2ccccc21)NCCCOCCOCCOCCCNC(=O)CCCCC1SCC2NC(=O)NC21 (stereo not shown) [N(Biot PEG4) IA 21, N-(N-(biotin-dPEG3-propyl)-6-bromohexanamide) isatoic anhydride] | 0.7% | – | 49/51 | – | – | – |
